Drawing on patent US11186572B2, “Bacterial glutaminyl cyclases and inhibitors thereof for use in the treatment of periodontitis” (Fraunhofer-Gesellschaft zur Forderung der Angewandten …, priority 2016, dated 2021), this text covers Ki and remaining activity for 29 compounds.

pKi: −log10 of the molar value. Read-outs that look alike come from different tables or passages of the source.

The target in this test is T1, PgQC (Porphyromonas gingivalis, UniProt Q7MT37).
T1 construct: Ki; RA (average residual QC activity of PgQC); other: c = 1 μM; other: c = 1.5 μM; other: c = 10 μM; other: c = 100 μM; other: c = 12 μM; RA; fused on or other part: N-terminal His tag from pET28a(+), cleaved off by thrombin before the enzymatic characterisation
In words: biochemical. On the set-up: species or system P. gingivalis. Particulars: for pKi: inhibition of PgQC, H-Gln-AMC, 50 mM Tris-HCl, 50 mM NaCl pH 8.0, 30° C. On the procedure:
The assay consists of varying concentration of the fluorogenic substrate and 0.5 U pyroglutaminyl aminopeptidase in 50 mM Tris-HCl, 50 mM NaCl at pH 8.0. After 10 minute incubation time at 30° C. reaction was initiated by addition of bacQC to a final volume of 125 μl reaction mixture. […] All determinations were carried out in 96 well microtiter plates (Fisher Scientific) at 30° C. using the FluoStar Optima (BMG Labtech).
For inhibitor testing, the sample composition was the same as described above, except for the addition of the putative inhibitory compound. […] (∘) represents reaction without inhibitor. Determinations were carried out in 50 mM Tris-HCl, 50 mM NaCl pH 8.0 and 1% (v/v) DMSO at 30° C.
RA refers to the average residual QC activity of PgQC measured in the presence of a concentration c of the respective compound. Ki refers to the average Ki values measured as described above, and Std(Ki) refers to the standard deviation of Ki.

[1] abbreviates: read-out: RA (average residual QC activity of PgQC).

With `COC(=O)/C=C/CN1CCc2[nH]cnc2C1` [MWT-S-00138, Methyl (E)-4-(3,4,6,7-tetrahydroimidazo[4,5-c]pyridin-5-yl)but-2-enoate], under “Ki (average)”, the pKi was 5.52. The remaining activity at 20 µM under setting [1] turned out to be 21%.
In the case of `c1ccc(CN2CCc3[nH]cnc3C2)cc1` [MWT-S-00139, 5-Benzyl-3,4,6,7-tetrahydroimidazo[4,5-c]pyridine], the negative logarithm of the Ki (pKi) (read-out: Ki (average)) is 6.04. Under setting [1], the remaining activity at 8 µM is 18%.
Take `c1ccc(CCN2CCc3[nH]cnc3C2)cc1` [MWT-S-00145, 5-(2-Phenylethyl)-3,4,6,7-tetrahydroimidazo[4,5-c]pyridine]: under “read-out: Ki (average)”, the pKi is 5.19. Also, the remaining activity at 40 µM under setting [1] is 21%.
As for `O=C(/C=C/c1ccccc1)N1CCc2[nH]cnc2C1` [MWT-S-00146, (E)-3-Phenyl-1-(3,4,6,7-tetrahydroimidazo[4,5-c]pyridin-5-yl)prop-2-en-1-one], the pKi (read-out: Ki (average)) is 5.80. For the same compound, the remaining activity at 15 µM under setting [1] worked out at 18%.
As for `O=C(CCc1ccccc1)N1CCc2[nH]cnc2C1` [MWT-S-00147, 3-Phenyl-1-(3,4,6,7-tetrahydroimidazo[4,5-c]pyridin-5-yl)propan-1-one], the pKi (read-out: Ki (average)) was 5.76. Further, the remaining activity at 12 µM under setting [1] amounted to 22%.
As for `O=C(Cc1ccccc1)N1CCc2[nH]cnc2C1` [MWT-S-00148, 2-Phenyl-1-(3,4,6,7-tetrahydroimidazo[4,5-c]pyridin-5-yl)ethanone], the pKi (read-out: Ki (average)) was 5.77. The remaining activity at 8 µM under setting [1] was 29%.
On to `O=C(c1ccccc1)N1CCc2[nH]cnc2C1` [MWT-S-00149, Phenyl(3,4,6,7-tetrahydroimidazo[4,5-c]pyridin-5-yl)methanone], for which the pKi (read-out: Ki (average)) is 6.36. For the same compound, the remaining activity at 4 µM under setting [1] turned out to be 20%.
Turning to `O=C(c1ccc(F)cc1)N1CCc2[nH]cnc2C1` [MWT-S-00156, (4-Fluorophenyl)-(3,4,6,7-tetrahydroimidazo[4,5-c]pyridin-5-yl)methanone], the pKi (read-out: Ki (average)) is 6.06. For the same compound, the remaining activity at 5 µM under setting [1] worked out at 24%.
The like results for `COc1ccc(C(=O)N2CCc3[nH]cnc3C2)cc1` [MWT-S-00157, (4-Methoxyphenyl)-(3,4,6,7-tetrahydroimidazo[4,5-c]pyridin-5-yl)methanone] were, in that order, 6.08 and 24%.
For the compound `COc1cccc(C(=O)N2CCc3[nH]cnc3C2)c1` [MWT-S-00158, (3-Methoxyphenyl)-(3,4,6,7-tetrahydroimidazo[4,5-c]pyridin-5-yl)methanone], the pKi (read-out: Ki (average)) is 6.47. The remaining activity at 2 µM under setting [1] was determined as 21%.
In the case of `O=C(c1ccc(Cl)c(Cl)c1)N1CCc2[nH]cnc2C1` [MWT-S-00159, (3,4-Dichlorophenyl)-(3,4,6,7-tetrahydroimidazo[4,5-c]pyridin-5-yl)methanone], the pKi (read-out: Ki (average)) is 6.59. Under setting [1], the remaining activity at 2 µM is 18%.
Take `O=C(c1ccc(Cl)cc1)N1CCc2[nH]cnc2C1` [MWT-S-00160, (4-Chlorophenyl)-(3,4,6,7-tetrahydroimidazo[4,5-c]pyridin-5-yl)methanone]: the pKi (read-out: Ki (average)) was 6.17. The remaining activity at 5 µM under setting [1] was determined as 20%.
On to `c1ccc(CN2CCc3[nH]cnc3C23COC3)cc1` [MWT-S-00260, 5-Benzylspiro[6,7-dihydro-3H-imidazo[4,5-c]pyridine-4,3′-oxetane]], for which the pKi (read-out: Ki (average)) is 5.75. For the same compound, the remaining activity at 10 µM under setting [1] amounted to 22%.
With `Fc1cc(CN2CCc3[nH]cnc3C2c2ccccc2)cc(F)c1F` (stereo not drawn) [MWT-S-00261, 4-Phenyl-5-[(3,4,5-trifluorophenyl)methyl]-3,4,6,7-tetrahydroimidazo[4,5-c]pyridine], the remaining activity at 20 µM under setting [1] was found to be 93%.
With `c1ccc(C2NCCc3[nH]cnc32)cc1` (stereo not drawn) [MWT-S-00264], the remaining activity at 100 µM under setting [1] was 92%.
For `CC1c2nc[nH]c2CCN1Cc1ccccc1` (stereo not drawn) [MWT-S-00265, 5-Benzyl-4-methyl-3,4,6,7-tetrahydroimidazo[4,5-c]pyridine], the pKi (read-out: Ki (average)) is 5.51. For the same compound, the remaining activity at 20 µM under setting [1] was determined as 21%.
The compound `Fc1cc(CN2CCc3[nH]cnc3C23COC3)cc(F)c1F` [MWT-S-00266, 5-[(3,4,5-Trifluorophenyl)methyl]spiro[6,7-dihydro-3H-imidazo[4,5-c]pyridine-4,3′-oxetane]] showed a pKi (Ki (average)) of 6.25. The remaining activity at 4 µM under setting [1] is 19%.
In the same order, the values of `CC1c2nc[nH]c2CCN1Cc1cc(F)c(F)c(F)c1` (stereo not drawn) [MWT-S-00267, 4-Methyl-5-[(3,4,5-trifluorophenyl)methyl]-3,4,6,7-tetrahydro-imidazo[4,5-c]pyridine] are 6.28 and 20%.
`c1ccc(CN2CCc3[nH]cnc3C2c2ccccc2)cc1` (stereo not drawn) [MWT-S-00268, 5-Benzyl-4-phenyl-3,4,6,7-tetrahydroimidazo[4,5-c]pyridine]: under setting [1], the remaining activity at 16 µM is 93%.
For the compound `CC1c2nc[nH]c2CCN1C(=O)c1ccccc1` (stereo not drawn) [MWT-S-00327], the remaining activity at 100 µM under setting [1] came to 18%.
Consider `c1nc2c([nH]1)CCN(Cc1ccc(OCCN3CCOCC3)cc1)C2` [MWT-S-00330, 4-[2-[4-(1,4,6,7-Tetrahydroimidazo[4,5-c]pyridin-5-ylmethyl)phenoxy]ethyl]morpholine], for which, under “Ki (average)”, the pKi is 6.03. For the same compound, the remaining activity at 8 µM under setting [1] was 22%.
For the compound `CCCCOc1ccc(CN2CCc3[nH]cnc3C2)cc1` [MWT-S-00331, 5-[(4-Butoxyphenyl)methyl]-1,4,6,7-tetrahydroimidazo[4,5-c]pyridine], the pKi (Ki (average)) is 6.60. The remaining activity at 1.5 µM under setting [1] was found to be 26%.
For `COc1cccc(CN2CCc3[nH]cnc3C2)c1` [MWT-S-00343, 5-[(3-Methoxyphenyl)methyl]-1,4,6,7-tetrahydroimidazo[4,5-c]pyridine], the remaining activity at 1 µM under setting [1] was found to be 65%.
Still for that read-out and setting: the same measure for `FC1(F)Oc2ccc(CN3CCc4[nH]cnc4C3)cc2O1` [MWT-S-00344, 5-[(2,2-Difluoro-1,3-benzodioxol-5-yl)methyl]-1,4,6,7-tetrahydro-imidazo[4,5-c]pyridine]: 56%.
Where the note is “Ki (average)”, `c1ccc(COc2ccc(CN3CCc4[nH]cnc4C3)cc2)cc1` [MWT-S-00359, 5-[(4-Benzyloxyphenyl)methyl]-1,4,6,7-tetrahydroimidazo[4,5-c]pyridine] gave a pKi of 6.72. Moreover, the remaining activity at 1 µM under setting [1] was 31%.
With `c1cc(CN2CCc3[nH]cnc3C2)cc(N2CCCC2)c1` [MWT-S-00361, 5-[(3-Pyrrolidin-1-ylphenyl)methyl]-1,4,6,7-tetrahydroimidazo[4,5-c]pyridine], the remaining activity at 1 µM under setting [1] is 80%.
`c1nc2c([nH]1)CCN(Cc1ccc3c(c1)OCCO3)C2` [MWT-S-00380, 5-(2,3-Dihydro-1,4-benzodioxin-6-ylmethyl)-1,4,6,7-tetrahydro-imidazo[4,5-c]pyridine]: the pKi (Ki (average)) is 6.51. Moreover, the remaining activity at 1 µM under setting [1] came to 39%.
`Cc1ccc(CN2CCc3[nH]cnc3C2)cc1` [MWT-S-00420, 5-(p-Tolylmethyl)-1,4,6,7-tetrahydroimidazo[4,5-c]pyridine] gave a pKi (Ki (average)) of 6.09. In addition, the remaining activity at 10 µM under setting [1] was 16%.
The like results for `Clc1ccc(CN2CCc3[nH]cnc3C2)cc1` [MWT-S-00421, 5-[(4-Chlorophenyl)methyl]-1,4,6,7-tetrahydroimidazo[4,5-c]pyridine] were, in that order, 6.27 and 11%.
